Here are results for seven cell lines from the supplement of paper PMC10307832.

What all share (test): relative viability (nuclei count vs DMSO), 5 days (fraction); higher = more cells survive
Compound in test [1]: COc1cc(-c2nn([C@H]3CC[C@H](N4CCN(C(C)=O)CC4)CC3)c3ncnc(N)c23)ccc1NC(=O)c1cc2ccccc2n1C + O=C(c1cc(Cc2n[nH]c(=O)c3ccccc23)ccc1F)N1CCN(C(=O)C2CC2)CC1 [Olaparib] (partner 8 µM)
The essentials: (§1)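 Relative viability divides the nuclei count in treated wells by that in vehicle wells. Lung cancer cell lines were seeded in 1536-well plates, dosed by pin tool the next day, and fixed and stained after 5 days in one step with final 0.05% Triton X-100, 1% formaldehyde and 1 ug/ml Hoechst. Dosing was a single drug or a fixed anchor-drug dose plus five library-drug doses (not always all listed) in √10 steps, and values are medians of duplicate plates imaged at 4×.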

Compound in the test “Midostaurin + Dasatinib”: CO[C@@H]1[C@H](N(C)C(=O)c2ccccc2)C[C@H]2O[C@]1(C)n1c3ccccc3c3c4c(c5c6ccccc6n2c5c31)C(=O)NC4 [Midostaurin] + Cc1nc(Nc2ncc(C(=O)Nc3c(C)cccc3Cl)s2)cc(N2CCN(CCO)CC2)n1 [Dasatinib] (partner 0.075 µM)
The essentials: as §1

Compound in the test “Midostaurin + Trametinib”: CO[C@@H]1[C@H](N(C)C(=O)c2ccccc2)C[C@H]2O[C@]1(C)n1c3ccccc3c3c4c(c5c6ccccc6n2c5c31)C(=O)NC4 [Midostaurin] + CC(=O)Nc1cccc(-n2c(=O)n(C3CC3)c(=O)c3c(Nc4ccc(I)cc4F)n(C)c(=O)c(C)c32)c1 [Trametinib] (partner 0.02 µM)
The essentials: as §1

Compound in test [2]: COc1cc(-c2nn([C@H]3CC[C@H](N4CCN(C(C)=O)CC4)CC3)c3ncnc(N)c23)ccc1NC(=O)c1cc2ccccc2n1C + C[C@@H](Oc1cc(-c2cnn(C3CCNCC3)c2)cnc1N)c1c(Cl)ccc(F)c1Cl [Crizotinib] (partner 1 µM)
The essentials: as §1

Compound in the test “Midostaurin + Navitoclax”: CO[C@@H]1[C@H](N(C)C(=O)c2ccccc2)C[C@H]2O[C@]1(C)n1c3ccccc3c3c4c(c5c6ccccc6n2c5c31)C(=O)NC4 [Midostaurin] + CC1(C)CCC(c2ccc(Cl)cc2)=C(CN2CCN(c3ccc(C(=O)NS(=O)(=O)c4ccc(N[C@H](CCN5CCOCC5)CSc5ccccc5)c(S(=O)(=O)C(F)(F)F)c4)cc3)CC2)C1 [Navitoclax] (partner 0.5 µM)
The essentials:
as §1

As for PC-3 [JPC-3], the relative viability turned out to be 1.15 in test [1] (first compound 0.0128 µM); 1.35 in test [1] (first compound 0.04048 µM); 1.08 in test [1] (first compound 0.128 µM); 1.24 in test [1] (first compound 1.28 µM); 0.952 with Midostaurin + Dasatinib (first compound 0.01 µM); 0.893 with Midostaurin + Dasatinib (first compound 0.03162 µM). The relative viability in the test with Midostaurin + Dasatinib (first compound 0.1 µM) is 1.07; with Midostaurin + Dasatinib (first compound 0.3162 µM), 1.01; with Midostaurin + Trametinib (first compound 0.01 µM), 0.684; with Midostaurin + Trametinib (first compound 0.03162 µM) it was 0.722; with Midostaurin + Trametinib (first compound 0.1 µM), 0.699; with Midostaurin + Trametinib (first compound 0.3162 µM), 0.814. Besides, the relative viability in test [2] (first compound 0.0128 µM) worked out at 1.05; in test [2] (first compound 0.04048 µM), 1.09; in test [2] (first compound 0.128 µM), 0.968; in test [2] (first compound 1.28 µM), 1.08; in the test with Midostaurin + Navitoclax (first compound 0.01 µM) it was 0.752; in the test with Midostaurin + Navitoclax (first compound 0.03162 µM) it was 0.777. For the same cell line, the relative viability with Midostaurin + Navitoclax (first compound 0.1 µM) turned out to be 0.791; with Midostaurin + Navitoclax (first compound 0.3162 µM), 0.851.

In the case of PC-14, the relative viability was 0.231 in test [1] (first compound 0.0128 µM); 0.349 in test [1] (first compound 0.04048 µM); 0.283 in test [1] (first compound 0.128 µM); 0.343 in test [1] (first compound 1.28 µM); 0.251 in the test with Midostaurin + Dasatinib (first compound 0.01 µM); 0.253 with Midostaurin + Dasatinib (first compound 0.03162 µM). Also, the relative viability with Midostaurin + Dasatinib (first compound 0.1 µM) was determined as 0.218; with Midostaurin + Dasatinib (first compound 0.3162 µM) it was 0.182; in the test with Midostaurin + Trametinib (first compound 0.01 µM) it was 0.707; in the test with Midostaurin + Trametinib (first compound 0.03162 µM), 0.914; with Midostaurin + Trametinib (first compound 0.1 µM), 0.692; with Midostaurin + Trametinib (first compound 0.3162 µM), 0.635. The relative viability worked out at 0.941 in test [2] (first compound 0.0128 µM); 0.98 in test [2] (first compound 0.04048 µM); 0.965 in test [2] (first compound 0.128 µM); 0.87 in test [2] (first compound 1.28 µM); 0.973 with Midostaurin + Navitoclax (first compound 0.01 µM); 1.01 in the test with Midostaurin + Navitoclax (first compound 0.03162 µM). Further, the values for the relative viability in the test with Midostaurin + Navitoclax (first compound 0.1 µM) and with Midostaurin + Navitoclax (first compound 0.3162 µM) were 0.985 and 0.965, respectively.

RERF-LC-KJ: the relative viability was determined as 1.03 in test [1] (first compound 0.0128 µM); 0.946 in test [1] (first compound 0.04048 µM); 0.928 in test [1] (first compound 0.128 µM); 0.941 in test [1] (first compound 1.28 µM); 0.848 with Midostaurin + Dasatinib (first compound 0.01 µM); 0.934 in the test with Midostaurin + Dasatinib (first compound 0.03162 µM). The relative viability with Midostaurin + Dasatinib (first compound 0.1 µM) came out at 0.876; with Midostaurin + Dasatinib (first compound 0.3162 µM) it was 0.709; with Midostaurin + Trametinib (first compound 0.01 µM) it was 0.854; with Midostaurin + Trametinib (first compound 0.03162 µM) it was 0.921; in the test with Midostaurin + Trametinib (first compound 0.1 µM), 0.84; with Midostaurin + Trametinib (first compound 0.3162 µM) it was 0.806. Moreover, the relative viability in test [2] (first compound 0.0128 µM) came to 0.897; in test [2] (first compound 0.04048 µM), 0.914; in test [2] (first compound 0.128 µM), 0.742; in test [2] (first compound 1.28 µM) it was 0.846; in the test with Midostaurin + Navitoclax (first compound 0.01 µM), 1.02; with Midostaurin + Navitoclax (first compound 0.03162 µM), 1.05. Moreover, the relative viability in the test with Midostaurin + Navitoclax (first compound 0.1 µM) was 1.19; in the test with Midostaurin + Navitoclax (first compound 0.3162 µM), 0.998.

As for SK-LU-1, the relative viability in test [1] (first compound 0.0128 µM) came out at 0.411; in test [1] (first compound 0.04048 µM), 0.6; in test [1] (first compound 0.128 µM), 0.431; in test [1] (first compound 1.28 µM), 0.402; with Midostaurin + Dasatinib (first compound 0.01 µM), 0.198; in the test with Midostaurin + Dasatinib (first compound 0.03162 µM) it was 0.191. Besides, the relative viability in the test with Midostaurin + Dasatinib (first compound 0.1 µM) was found to be 0.176; with Midostaurin + Dasatinib (first compound 0.3162 µM), 0.175; with Midostaurin + Trametinib (first compound 0.01 µM), 0.511; in the test with Midostaurin + Trametinib (first compound 0.03162 µM), 0.517; with Midostaurin + Trametinib (first compound 0.1 µM), 0.521; with Midostaurin + Trametinib (first compound 0.3162 µM) it was 0.509. Also, the relative viability was 1 in test [2] (first compound 0.0128 µM); 0.975 in test [2] (first compound 0.04048 µM); 0.658 in test [2] (first compound 0.128 µM); 0.506 in test [2] (first compound 1.28 µM); 0.703 in the test with Midostaurin + Navitoclax (first compound 0.01 µM); 0.704 with Midostaurin + Navitoclax (first compound 0.03162 µM). In addition, the relative viability in the test with Midostaurin + Navitoclax (first compound 0.1 µM) was 0.808; in the test with Midostaurin + Navitoclax (first compound 0.3162 µM) it was 0.886.

On to SK-MES-1, for which the relative viability in test [1] (first compound 0.0128 µM) was found to be 0.79; in test [1] (first compound 0.04048 µM) it was 0.873; in test [1] (first compound 0.128 µM), 0.672; in test [1] (first compound 1.28 µM), 0.587; with Midostaurin + Dasatinib (first compound 0.01 µM), 0.309; in the test with Midostaurin + Dasatinib (first compound 0.03162 µM) it was 0.36. The relative viability with Midostaurin + Dasatinib (first compound 0.1 µM) was determined as 0.393; with Midostaurin + Dasatinib (first compound 0.3162 µM), 0.237; with Midostaurin + Trametinib (first compound 0.01 µM), 0.57; with Midostaurin + Trametinib (first compound 0.03162 µM) it was 0.565; in the test with Midostaurin + Trametinib (first compound 0.1 µM), 0.526; with Midostaurin + Trametinib (first compound 0.3162 µM), 0.493. Also, the relative viability in test [2] (first compound 0.0128 µM) is 1.02; in test [2] (first compound 0.04048 µM), 1.04; in test [2] (first compound 0.128 µM), 0.869; in test [2] (first compound 1.28 µM) it was 0.971; with Midostaurin + Navitoclax (first compound 0.01 µM), 1.17; with Midostaurin + Navitoclax (first compound 0.03162 µM), 1.13. Also, the relative viability in the test with Midostaurin + Navitoclax (first compound 0.1 µM) turned out to be 1.18; in the test with Midostaurin + Navitoclax (first compound 0.3162 µM) it was 1.15.

As for SW 1573, the relative viability in test [1] (first compound 0.0128 µM) amounted to 0.439; in test [1] (first compound 0.04048 µM), 0.414; in test [1] (first compound 0.128 µM), 0.412; in test [1] (first compound 1.28 µM), 0.393; in the test with Midostaurin + Dasatinib (first compound 0.01 µM), 0.534; in the test with Midostaurin + Dasatinib (first compound 0.03162 µM), 0.548. Besides, the relative viability with Midostaurin + Dasatinib (first compound 0.1 µM) was 0.456; with Midostaurin + Dasatinib (first compound 0.3162 µM), 0.161; in the test with Midostaurin + Trametinib (first compound 0.01 µM) it was 0.547; with Midostaurin + Trametinib (first compound 0.03162 µM), 0.788; with Midostaurin + Trametinib (first compound 0.1 µM) it was 0.471; in the test with Midostaurin + Trametinib (first compound 0.3162 µM), 0.465. Further, the relative viability in test [2] (first compound 0.0128 µM) stood at 0.775; in test [2] (first compound 0.04048 µM), 0.703; in test [2] (first compound 0.128 µM), 0.636; in test [2] (first compound 1.28 µM) it was 0.652; with Midostaurin + Navitoclax (first compound 0.01 µM), 0.957; with Midostaurin + Navitoclax (first compound 0.03162 µM) it was 1.01. Further, the relative viability with Midostaurin + Navitoclax (first compound 0.1 µM) was found to be 0.971; in the test with Midostaurin + Navitoclax (first compound 0.3162 µM), 1.22.

Consider UMC-11, for which the relative viability in test [1] (first compound 0.0128 µM) was 0.388; in test [1] (first compound 0.04048 µM), 0.464; in test [1] (first compound 0.128 µM) it was 0.342; in test [1] (first compound 1.28 µM), 0.362; with Midostaurin + Dasatinib (first compound 0.01 µM), 0.362; in the test with Midostaurin + Dasatinib (first compound 0.03162 µM), 0.403. In addition, the relative viability in the test with Midostaurin + Dasatinib (first compound 0.1 µM) amounted to 0.444; with Midostaurin + Dasatinib (first compound 0.3162 µM), 0.344; in the test with Midostaurin + Trametinib (first compound 0.01 µM), 0.698; with Midostaurin + Trametinib (first compound 0.03162 µM), 0.656; with Midostaurin + Trametinib (first compound 0.1 µM), 0.691; with Midostaurin + Trametinib (first compound 0.3162 µM), 0.562. Moreover, the relative viability in test [2] (first compound 0.0128 µM) worked out at 0.638; in test [2] (first compound 0.04048 µM), 0.627; in test [2] (first compound 0.128 µM), 0.64; in test [2] (first compound 1.28 µM), 0.479; with Midostaurin + Navitoclax (first compound 0.01 µM) it was 0.32; in the test with Midostaurin + Navitoclax (first compound 0.03162 µM), 0.346. Moreover, the relative viability with Midostaurin + Navitoclax (first compound 0.1 µM) amounted to 0.241; with Midostaurin + Navitoclax (first compound 0.3162 µM), 0.177.
